# From PMC10135567, “New Indole-3-Propionic Acid and 5-Methoxy-Indole Carboxylic Acid Derived Hydrazone Hybrids as Multifunctional Neuroprotectors” (Antioxidants, 2023)
# Counter-ions that a name gives are not always drawn.
# Assays:
# [1] = Fe(II)-induced lipid peroxidation assay (LP assay, TBARS); type: biochemical; conditions: 90 µM, lecithin 1 mg/mL, 0.1 mM FeCl2; lower = stronger antioxidant
# Experimental: (§1) The lipid peroxidation assay and a modification of the deoxyribose-degradation assay were used. Two types of measurement compositions in phosphate buffer (PB–K2HPO4/KH2PO4, pH 7.4) were prepared for both tests: (i) samples, containing the biologically relevant molecules (lecithin emulsion or deoxyribose), iron, and the tested hydrazones at the concentrations indicated below the figures; and (ii) controls, in which the tested hydrazones were omitted. The data for the sample activity were presented as a percentage of the control measurement.
# The thiobarbituric-acid reactive-substance colorimetric test was performed in a model system of Fe(II)-induced lipid peroxidation as an emulsion prepared from egg yolk phospholipids. Each sample contained 1 mg/mL of lecithin. LP was initiated using 0.1 mM FeCl2. After 30 min incubation at 37 °C, 0.5 mL of 2.8% trichloroacetic acid solution and 0.5 mL of 0.5% thiobarbituric acid solution were added, following a second incubation at 100 °C for 20 min. Centrifugation at 3000 rpm for 20 min at 4 °C was performed, and we determined the absorbance value of the supernatant at 532 nm via Shimadzu UV-1601 UV-VIS spectrophotometer.
# [2] = Fe(II)-induced deoxyribose degradation assay; type: biochemical; conditions: 80 µM, 2-deoxyribose 0.5 mM, 0.1 mM FeCl2; lower = stronger antioxidant
# Experimental: as §1
# The deoxyribose (0.5 mM) damage was induced by adding FeCl2 (0.1 mM). The measurement compositions were incubated at 37 °C for 30 min. The next step comprised adding 0.5 mL of 2.8% trichloroacetic acid and 0.5 mL of thiobarbituric acid. Then, the samples were heated in boiling water for 20 min, and their absorbance was estimated at 532 nm (characteristic band for the generated chromophore) via Shimadzu UV-1601 UV-vis spectrophotometer.
# [3] = Superoxide radical scavenging, xanthine/xanthine oxidase/NBT system; type: biochemical
# Experimental: The 1 mL cuvette for the control contained 1 mM xanthine, 20 µL xanthine oxidase (100 IU/L), and 0.04 mM NBT [43, 44]. In the sample compositions, the tested hydrazones at different concentrations were added. All measurement compositions were incubated at 37 °C, and the absorbance was determined spectrophotometrically at 560 nm via Shimadzu UV-1601 UV-vis spectrophotometer.
# The potential capability of the investigated compounds to prevent the superoxide-anion radical-induced NBT reduction was investigated spectrophotometrically by xanthine-oxidase assay. The assay was carried out at the final concentration of the tested compounds, at 1, 10, 50, and 100 µM.
# [4] = O-phenanthroline Fe(II) chelation test; type: physicochemical; conditions: 200 µM compound, FeCl2
# Experimental: The Fe (II)-chelating activity of the tested hydrazones was determined by the O-phenanthroline method. A total of 1 mL sample solutions of 50 mM PB pH 7 contained 0.2 mM O-phenanthroline and 0.05 mM FeCl2 and 0.2 mM hydrazone. In the controls, the tested compounds were omitted. Absorbance was measured at 515 nm via GENESYS 50 UV-VIS spectrophotometer after incubation for 5 min at 37 °C. The data for the sample activity were presented as a percentage of the control measurement. Absorbance spectra of all the samples, the control, and the measurement compositions containing the tested hydrazones and Fe(II) at the concentrations used in the samples were measured.
# To explain the results of both systems of Fe(II)-induced oxidative damage, we studied the potency of the tested compounds to chelate-iron (Fe(II)). This was studied by spectrophotometric determination of free iron (Fe(II)) using the ortho-phenanthroline test, as 1,10-phenantroline reacts rapidly with Fe(II) ions in weakly acidic media, generating an orange–red complex (ferroin) with characteristic absorbance spectra (molar absorptivity 1.10.104 (α = 0.20) at ~max 512 nm and a molar ratio 3:1 (R: Fe(II))). The generated complex was stable, and the bound Fe(II) was resistant to oxidation. Lower absorbance of the reaction mixture indicated higher Fe^2+-chelating activity.
# [5] = tested on: isolated rat-brain synaptosomes; assay: 6-OHDA-induced neurotoxicity in isolated rat synaptosomes, synaptosomal viability; type: cell-based; conditions: Rattus norvegicus; 10 µM pre-incubation 30 min, then 150 µM 6-OHDA 1 h; read-out: synaptosomal viability (SV) preserved, as compared to 6-OHDA
# Experimental: (§2) This neurotoxicity model was based on the metabolism and auto-oxidation of 6-hydroxy dopamine responsible for the reactive oxygen species and quinones generation, ultimately leading to neurotoxicity and neurodegeneration. The experiment was performed by pre-incubation of the synaptosomes with 10 µM of the compounds for 30 min, followed by the addition of 150 µM 6-hydroxy dopamine for induction of neurotoxicity. After 1 h, they were centrifuged twice for 1 min at 15,000 × g. After the second wash, the precipitates were resolved with buffer B and glucose.
# [6] = MTT cell viability assay (cytotoxicity), bEnd3; type: cell-based, mouse; conditions: mouse, bEnd3 brain endothelial cells, 1–500 µM
# Experimental: Mouse-brain endothelial cell line bEnd3 [36] (CRL-2299) was purchased from the American Type Culture Collection (ATCC, Manassas, VA, USA). The cells were cultured in DMEM (Dulbeco’s modified essential medium) (cat. no. 30-2002, ATCC, Manassas, VA, USA), supplemented with 10% heat-inactivated FBS (cat. no. F7524, Sigma-Aldrich Co. LLC, St. Louis, MO, USA), 1 mM L-glutamine (cat. no. G7513, Sigma-Aldrich Co. LLC, St. Louis, MO, USA) and 1× Antibiotic-Antimycotic solution (penicillin: streptomycin: amphotericin B (100 U/mL: 0.10 mg/mL: 0.25 µg/mL) (cat. no. A5955, Sigma-Aldrich Co. LLC, St. Louis, MO, USA) at 37 °C in a humidified atmosphere containing 5% CO2. The cells were passaged in 75 cm^2 flasks every 3–5 days via trypsinization (StableCell Trypsin solution, cat. no. T2610, Sigma-Aldrich Co. LLC, St. Louis, MO, USA).
# (§3) Cell viability was assessed via the mitochondrial reductase-dependent reaction of (3-(4,5-dimethylthiazol-2-yl)- 2,5-diphenyl tetrazolium bromide (MTT, cat. no. 475989, Calbiochem, Merck KGaA, Darmstadt, Germany). The SH-SY5Y and bEnd3 cell lines were seeded in 96-well plates at a density of 0.7 × 10^4 (bEnd3) or 2 × 10^4 (SH-SY5Y) cells/well and allowed to adhere for 24 h at 37 °C, 5% CO2. Then, the cells were incubated with the compounds (1–500 μM) for a preset time (24 h). For the solvent, the control cells were treated with DMSO corresponding to the highest concentration of DMSO in the samples (0.5% DMSO) in order to exclude its cytotoxic effect on the cells. For each concentration, a set of at least 6 wells were used. After incubation, the solution from each well was exchanged with fresh culture medium (100 µL/well), containing the MTT reagent (0.5 mg/mL) and incubated for 3 h at 37 °C in a humidified atmosphere and 5% CO2. The obtained formazan crystals were dissolved in 100 µL/well of 5% formic acid in propan-2-ol solution (or DMSO). The absorbance was measured at 570 nm via multiplate reader Tecan Infinite F200 PRO (Tecan Trading AG., Männedorf, Switzerland) or Synergy 2 (BioTek Instruments, Inc., Highland Park, Winooski, VT, USA).
# (§4) Both the SH-SY5Y and bEnd3 cells were treated with the test compounds in a concentration range from 1 to 500 µM for 24 h.
# [7] = MTT cell viability assay (cytotoxicity), SH-SY5Y; conditions: human, SH-SY5Y neuroblastoma cells
# Experimental: Neuroblastoma cell line SH-SY5Y (94030304) was acquired from the European Collection of Cell Cultures (ECACC, Salisbury, UK). Cells were cultured in a medium prepared with RPMI basic media supplemented with 10% heat-inactivated FBS (fetal bovine serum), 2 mM L-glutamine, 1% antibiotics (penicillin/streptomycin), and incubated at 37 °C in a humidified atmosphere containing 5% of CO2. The culture’s medium was replaced at a time interval of 2–3 days.
# as §3, §4
# [8] = tested on: isolated rat-brain synaptosomes; assay: Synaptosomal viability (MTT), substances administered alone
# Experimental: (§5) Preparation of the synaptosomes was carried out by multiple centrifugations using the Percoll gradient. Homogenization of the brains was performed in 10 volumes of cold buffer 1, which contained 5 mM HEPES and 0.32 M sucrose (pH = 7.4), followed by centrifugation at different speeds. For preparation of the gradient, the synaptosomes were isolated by Percoll reagent. Synaptosomes were resuspended and incubated in buffer 2, which contained 290 mM NaCl, 0.95 mM MgCl2x6H2O, 10 mM KCl, 2.4 mM CaCl2xH2O, 2.1 mM NaH2PO4, 44 mM HEPES, and 13 mM D-glucose. Incubations were performed in a 5% CO2 + 95% O2 atmosphere. The method of Lowry et al., using bovine serum albumin as a standard content, was applied for determination of synaptosomal protein [51].
# Synaptosomal viability was monitored based on a (3-(4,5)-dimethylthiazol-2-yl)-2,5-diphenyl tetrazolium bromide) assay. After incubation with the compounds, synaptosomes were treated with 0.5 mg/mL solution of (3-(4,5)-dimethylthiazol-2-yl)-2,5-diphenyl tetrazolium bromide) for 10 min at […]. Then, the synaptosomes were centrifuged twice at 15,000× g for 1 min. The resulting formazan crystals were dissolved in DMSO (dimethyl sulfoxide), and the extinction was determined by spectrophotometric measurements at 580–660 nm. […]
# [9] = tested on: isolated rat-brain synaptosomes; assay: Level of reduced glutathione (GSH) in isolated synaptosomes, substances administered alone
# Experimental: as §5
# After the treatment with the tested compounds, the glutathione levels of the synaptosomes were determined with an Ellman reagent (DTNB). The GSH levels were evaluated based on the synaptosomal sediment, precipitated with 5% TCA, and centrifuged for 10 min at 4000× g. GSH levels in the supernatant were measured spectrophotometrically at 412 nm by a Spectro UV-vis split spectrophotometer (LaboMed. Inc., Los Angelis, California, USA). […]
# [10] = tested on: SH-SY5Y cells; assay: H2O2-induced oxidative stress model in SH-SY5Y cells; type: cell-based, human; conditions: H2O2 1 mM 15 min
# Experimental: The SH-SY5Y cells were seeded in 96-well plates at a density of 3.5 × 10^4/well in 100 μL of RPMI supplemented with FBS for 24 h. Then, the cell medium was aspirated, and the cells were treated with different concentrations of the compounds—1, 10, and 50 µM for 90 min. Afterwards, the SH-SY5Y cells were washed with PBS and were exposed to hydrogen peroxide (H2O2) (1 mM in PBS for 15 min) to induce oxidative stress. All well contents were replaced by fresh culture medium and incubated for 24 h. MTT assay was used to evaluate the amount of attached viable cells. Negative controls (cells without H2O2 treatment) were considered as 100% protection and H2O2-treated cells as 0% protection.
# To evaluate the possible neuroprotective effects of the compounds, the SH-SY5Y cells were pre-treated with different concentrations (1, 10, 50 µM) for 90 min and then exposed to H2O2 (1 mM) for 15 min. The cell viability of all compounds was measured to verify their protective effect against the toxicity of hydrogen peroxide.
# [11] = tested on: isolated rat-brain synaptosomes; assay: 6-OHDA-induced neurotoxicity in isolated rat synaptosomes, GSH level; type: cell-based; conditions: 10 µM pre-incubation 30 min, then 150 µM 6-OHDA 1 h
# Experimental: as §2
Structure (SMILES),absorbance ratio sample/control (lipid peroxidation) [1],"absorbance ratio, % of the controls (deoxyribose degradation) [2]",absorbance at 515 nm compared to the controls (Fe(II) chelation) [4],viability at 10 µM [5] [%],IC50 at 24 h [6] [µM],IC50 at 24 h [7] [µM],also measured
"O=c1c(O)c(-c2ccc(O)c(O)c2)oc2cc(O)cc(O)c12 [quercetin, reference compound]",23%,about 50%,,,,,
"O=C(CCc1c[nH]c2ccccc12)NN=Cc1ccc(O)cc1O [Compound 3c, N′-(2,4-Dihydroxybenzylidene)-3-(1H-indol-3-yl)propanehydrazide]",below 65%,did not induce a modulating effect,"statistically identical absorbance values at 515 nm, as compared to the controls",33,> 500,275,"absorbance ratio (NBT reduction, % of control) ([3]; 1, 10, 50 and 100 µM): did not influence the estimated absorbance ratio at any of the tested concentrations; melting point: 239 to 240 °C"
"NCCc1cc(O)c(O)cc1O [Compound 6-OHDA, 6-hydroxydopamine]",,,,,,,decrease of synaptosomal viability (SV) vs. non-treated synaptosomes ([8]; 150 µM): 55%; decrease of GSH level vs. non-treated synaptosomes ([9]; 150 µM): 50%
"O=C(CCc1c[nH]c2ccccc12)NN=Cc1ccc(O)c(O)c1 [Compound 3b, N′-(3,4-Dihydroxybenzylidene)-3-(1H-indol-3-yl)propanehydrazide]",below 65%,,"statistically identical absorbance values at 515 nm, as compared to the controls",33,352,265,decrease of NBT reduction as compared to the controls ([3]; 100 µM (highest tested concentration)): more than 40%
"C#CCN[C@@H]1CCc2ccccc21 [Rasagiline.HCl, Rasagiline]",,,,67,,> 500,"protective effect: increased cell viability of SH-SY5Y vs. H2O2 group ([10]; 10 µM pre-treatment 90 min): 40%; protective effect: increased cell viability of SH-SY5Y vs. H2O2 group ([10]; 50 µM pre-treatment 90 min): 46%; reduction of synaptosomal viability (SV) vs. non-treated synaptosomes ([8]; 100 µM): 25%; reduction of GSH level vs. non-treated synaptosomes ([9]; 100 µM): did not decrease; GSH level preserved, as compared to 6-OHDA [11]: 80%"
